Assay results as given in patent US10709758B2 (priority 2015, dated 2020).

Molecular target: TcdB1 (Clostridioides difficile, UniProt P18177)
Sequence (P18177 2-2366 limits assumed): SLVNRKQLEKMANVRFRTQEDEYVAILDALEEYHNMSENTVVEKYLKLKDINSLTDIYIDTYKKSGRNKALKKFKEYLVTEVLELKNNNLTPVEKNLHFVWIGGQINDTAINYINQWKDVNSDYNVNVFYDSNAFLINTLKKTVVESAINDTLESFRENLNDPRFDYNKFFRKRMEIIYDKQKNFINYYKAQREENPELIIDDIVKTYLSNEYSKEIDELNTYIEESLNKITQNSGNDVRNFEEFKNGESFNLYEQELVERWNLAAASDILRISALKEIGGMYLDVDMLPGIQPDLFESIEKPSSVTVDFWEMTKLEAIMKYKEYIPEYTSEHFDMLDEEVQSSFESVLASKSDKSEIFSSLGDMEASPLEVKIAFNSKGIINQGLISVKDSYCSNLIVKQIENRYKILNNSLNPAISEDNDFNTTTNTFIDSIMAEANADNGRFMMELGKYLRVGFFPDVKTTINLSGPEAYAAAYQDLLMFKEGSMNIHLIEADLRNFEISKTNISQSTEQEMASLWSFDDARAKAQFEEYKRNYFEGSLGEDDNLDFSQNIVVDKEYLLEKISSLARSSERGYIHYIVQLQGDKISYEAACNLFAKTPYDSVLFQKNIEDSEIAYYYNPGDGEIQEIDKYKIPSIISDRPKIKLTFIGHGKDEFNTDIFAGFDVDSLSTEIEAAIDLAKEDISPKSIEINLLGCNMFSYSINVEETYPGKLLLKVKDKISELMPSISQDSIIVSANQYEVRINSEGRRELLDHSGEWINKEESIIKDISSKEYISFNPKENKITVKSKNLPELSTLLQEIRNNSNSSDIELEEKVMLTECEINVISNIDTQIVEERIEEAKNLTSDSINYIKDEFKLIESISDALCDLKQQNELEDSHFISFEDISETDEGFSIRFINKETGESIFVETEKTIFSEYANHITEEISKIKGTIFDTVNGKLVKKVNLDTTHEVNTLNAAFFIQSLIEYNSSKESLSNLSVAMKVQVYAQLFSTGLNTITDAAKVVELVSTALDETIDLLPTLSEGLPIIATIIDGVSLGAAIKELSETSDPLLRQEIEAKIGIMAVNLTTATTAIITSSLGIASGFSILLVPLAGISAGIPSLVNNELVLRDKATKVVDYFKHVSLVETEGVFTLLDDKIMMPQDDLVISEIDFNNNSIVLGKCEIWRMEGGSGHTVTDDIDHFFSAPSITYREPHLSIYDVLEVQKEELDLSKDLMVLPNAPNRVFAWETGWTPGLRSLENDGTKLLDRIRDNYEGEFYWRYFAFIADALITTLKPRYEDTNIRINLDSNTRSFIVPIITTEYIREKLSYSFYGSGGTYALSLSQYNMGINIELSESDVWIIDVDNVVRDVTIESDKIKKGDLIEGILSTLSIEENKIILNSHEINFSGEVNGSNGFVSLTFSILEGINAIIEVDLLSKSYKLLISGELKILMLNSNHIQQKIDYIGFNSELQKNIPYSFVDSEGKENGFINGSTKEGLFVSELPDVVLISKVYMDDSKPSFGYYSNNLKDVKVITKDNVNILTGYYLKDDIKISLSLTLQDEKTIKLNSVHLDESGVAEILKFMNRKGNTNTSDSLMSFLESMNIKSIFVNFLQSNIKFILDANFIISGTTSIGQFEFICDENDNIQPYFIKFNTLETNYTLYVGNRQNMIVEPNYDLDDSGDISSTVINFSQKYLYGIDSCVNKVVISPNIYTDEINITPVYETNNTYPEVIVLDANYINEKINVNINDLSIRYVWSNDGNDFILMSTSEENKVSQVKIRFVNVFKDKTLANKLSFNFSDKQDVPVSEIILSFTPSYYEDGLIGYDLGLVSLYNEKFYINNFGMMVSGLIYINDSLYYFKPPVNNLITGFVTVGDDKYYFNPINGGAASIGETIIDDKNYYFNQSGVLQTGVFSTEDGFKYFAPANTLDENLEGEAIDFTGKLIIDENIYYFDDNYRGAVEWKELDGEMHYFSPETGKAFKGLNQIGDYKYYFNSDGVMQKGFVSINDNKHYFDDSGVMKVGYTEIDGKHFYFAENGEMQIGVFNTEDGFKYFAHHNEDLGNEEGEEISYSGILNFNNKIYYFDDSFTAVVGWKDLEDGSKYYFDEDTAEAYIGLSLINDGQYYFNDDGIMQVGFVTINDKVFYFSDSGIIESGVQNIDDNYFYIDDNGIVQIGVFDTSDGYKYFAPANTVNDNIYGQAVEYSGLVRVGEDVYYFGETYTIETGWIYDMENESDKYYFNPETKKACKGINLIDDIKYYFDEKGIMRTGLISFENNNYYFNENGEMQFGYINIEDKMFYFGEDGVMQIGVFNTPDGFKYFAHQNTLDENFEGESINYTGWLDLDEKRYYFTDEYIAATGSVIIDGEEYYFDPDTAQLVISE

SMILES: CC[C@H](C)[C@H](NC(=O)[C@H](CCCCN)NC(=O)[C@H](CC(=O)O)NC(=O)[C@H](CO)NC(=O)[C@@H](NC(=O)[C@@H](NC(=O)[C@H](CC(N)=O)NC(=O)CNC(=O)[C@H](CCCCN)NC(=O)[C@H](Cc1ccccc1)NC(=O)[C@@H](NC(=O)[C@@H](N)CC(N)=O)C(C)C)[C@@H](C)O)[C@@H](C)CC)C(=O)N[C@@H](CO)C(=O)N[C@@H](Cc1ccccc1)C(=O)N[C@@H](CC(N)=O)C(=O)N[C@@H](Cc1ccccc1)C(=O)N[C@@H](CO)C(=O)N[C@@H](CC(=O)O)C(=O)N[C@@H](CCCCN)C(=O)O [PepB2]
- increase of the 50% toxic concentration (TC50) of TcdB1: 500 fold
- protection from cytotoxicity of TcdB1 over a range of toxin concentrations: protects CHO-K1 cells
